Measurements: ChEMBL document CHEMBL5380823, “Application and Study of ROCK Inhibitors in Pulmonary Fibrosis: Recent Developments and Future Perspectives” (J Med Chem, 2023)

Tests used:
[1] = target: T1, Rho-associated protein kinase 2 (Homo sapiens, UniProt O75116); assay: Inhibition of ROCK2 (unknown origin)
[2] = Oral bioavailability in BLM-induced Sprague-Dawley rat at 2 mg/kg measured upto 24 hrs; assay type: ADME, organism-based; settings: in vivo
[3] = Half life in BLM-induced Sprague-Dawley rat at 1 mg/kg, iv measured upto 24 hrs; assay type: ADME, organism-based; settings: in vivo
[4] = target: Rho-associated protein kinase 1 (Homo sapiens, UniProt Q13464); assay: Binding affinity to ROCK1 (unknown origin) assessed as inhibition constant
[5] = target: T1, Rho-associated protein kinase 2; assay: Binding affinity to ROCK2 (unknown origin) assessed as inhibition constant
[6] = Oral bioavailability in Wistar rat at 1 mg/kg; assay type: ADME, organism-based; settings: in vivo
[7] = Half life in iv dosed Wistar rat at 0.5 mg/kg; assay type: ADME, organism-based; settings: in vivo

T1 sequence (O75116 whole entry): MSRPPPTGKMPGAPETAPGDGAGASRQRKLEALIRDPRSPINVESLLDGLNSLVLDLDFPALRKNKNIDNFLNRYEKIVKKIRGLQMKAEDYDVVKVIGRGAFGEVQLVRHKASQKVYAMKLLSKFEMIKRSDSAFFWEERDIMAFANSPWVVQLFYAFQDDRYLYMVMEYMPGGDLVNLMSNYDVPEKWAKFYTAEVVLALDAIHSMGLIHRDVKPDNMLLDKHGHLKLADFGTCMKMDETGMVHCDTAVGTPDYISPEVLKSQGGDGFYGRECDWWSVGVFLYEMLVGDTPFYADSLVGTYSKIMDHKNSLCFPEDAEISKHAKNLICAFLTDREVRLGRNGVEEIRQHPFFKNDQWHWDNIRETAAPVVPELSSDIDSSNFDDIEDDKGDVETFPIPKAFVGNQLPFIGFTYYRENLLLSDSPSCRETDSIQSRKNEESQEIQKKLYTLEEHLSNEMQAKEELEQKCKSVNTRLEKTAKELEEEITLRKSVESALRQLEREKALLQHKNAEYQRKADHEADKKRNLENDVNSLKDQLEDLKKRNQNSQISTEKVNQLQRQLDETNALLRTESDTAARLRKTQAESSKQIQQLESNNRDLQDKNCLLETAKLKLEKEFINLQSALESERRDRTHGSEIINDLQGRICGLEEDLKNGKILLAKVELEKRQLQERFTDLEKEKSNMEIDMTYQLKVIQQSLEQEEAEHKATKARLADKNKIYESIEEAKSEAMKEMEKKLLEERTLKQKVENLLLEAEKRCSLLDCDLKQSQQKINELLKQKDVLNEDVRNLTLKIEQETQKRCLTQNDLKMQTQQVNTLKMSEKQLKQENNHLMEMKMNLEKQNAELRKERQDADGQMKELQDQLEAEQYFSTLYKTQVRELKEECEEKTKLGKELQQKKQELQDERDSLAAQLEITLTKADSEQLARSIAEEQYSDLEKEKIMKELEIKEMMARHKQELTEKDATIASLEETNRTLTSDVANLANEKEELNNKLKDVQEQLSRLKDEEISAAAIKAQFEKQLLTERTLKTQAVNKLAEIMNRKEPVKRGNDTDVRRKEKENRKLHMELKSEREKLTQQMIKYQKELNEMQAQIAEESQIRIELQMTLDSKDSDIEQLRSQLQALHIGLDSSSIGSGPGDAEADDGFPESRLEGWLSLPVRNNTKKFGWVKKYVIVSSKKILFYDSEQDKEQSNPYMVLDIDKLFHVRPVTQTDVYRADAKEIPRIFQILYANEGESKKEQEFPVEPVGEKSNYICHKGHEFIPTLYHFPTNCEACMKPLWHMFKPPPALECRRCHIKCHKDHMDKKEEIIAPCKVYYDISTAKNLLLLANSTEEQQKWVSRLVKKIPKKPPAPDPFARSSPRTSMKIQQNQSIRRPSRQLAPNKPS
Rho-associated protein kinase 1, sequence (Q13464 whole entry): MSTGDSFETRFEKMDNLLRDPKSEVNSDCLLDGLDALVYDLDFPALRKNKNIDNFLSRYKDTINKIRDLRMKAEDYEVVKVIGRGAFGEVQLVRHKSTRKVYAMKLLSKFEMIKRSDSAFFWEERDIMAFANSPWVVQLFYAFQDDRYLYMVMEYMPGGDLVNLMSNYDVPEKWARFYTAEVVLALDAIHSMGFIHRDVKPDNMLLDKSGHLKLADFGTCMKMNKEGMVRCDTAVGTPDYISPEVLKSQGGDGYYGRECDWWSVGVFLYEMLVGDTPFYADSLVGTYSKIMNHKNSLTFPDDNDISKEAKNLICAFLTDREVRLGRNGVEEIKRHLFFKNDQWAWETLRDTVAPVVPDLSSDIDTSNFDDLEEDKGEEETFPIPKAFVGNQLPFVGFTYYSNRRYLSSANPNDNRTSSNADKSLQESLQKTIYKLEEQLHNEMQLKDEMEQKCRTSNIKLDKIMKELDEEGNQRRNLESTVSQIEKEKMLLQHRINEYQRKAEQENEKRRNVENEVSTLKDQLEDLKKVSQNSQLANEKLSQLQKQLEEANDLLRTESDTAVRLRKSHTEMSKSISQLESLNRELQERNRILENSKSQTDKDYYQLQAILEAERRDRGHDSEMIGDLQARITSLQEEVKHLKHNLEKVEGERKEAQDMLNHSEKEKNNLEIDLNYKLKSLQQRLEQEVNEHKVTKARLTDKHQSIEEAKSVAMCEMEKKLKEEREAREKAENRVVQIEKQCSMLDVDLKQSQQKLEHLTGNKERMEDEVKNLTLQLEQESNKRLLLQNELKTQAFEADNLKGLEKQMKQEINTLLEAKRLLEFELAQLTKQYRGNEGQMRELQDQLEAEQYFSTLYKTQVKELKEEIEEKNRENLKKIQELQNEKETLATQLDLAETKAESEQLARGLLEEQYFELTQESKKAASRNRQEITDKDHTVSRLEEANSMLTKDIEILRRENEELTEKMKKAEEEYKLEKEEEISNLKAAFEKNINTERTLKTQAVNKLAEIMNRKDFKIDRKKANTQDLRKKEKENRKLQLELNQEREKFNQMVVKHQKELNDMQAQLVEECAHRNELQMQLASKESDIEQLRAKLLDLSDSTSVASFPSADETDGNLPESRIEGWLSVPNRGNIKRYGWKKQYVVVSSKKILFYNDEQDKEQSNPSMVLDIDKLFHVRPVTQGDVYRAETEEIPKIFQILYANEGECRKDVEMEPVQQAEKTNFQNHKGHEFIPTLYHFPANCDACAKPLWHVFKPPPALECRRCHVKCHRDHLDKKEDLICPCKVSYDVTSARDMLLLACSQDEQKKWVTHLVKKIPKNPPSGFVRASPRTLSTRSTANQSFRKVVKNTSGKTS

| Compound | IC50 [1] [nM] | other results |
| --- | --- | --- |
| Cc1c(C(=O)N[C@H]2C[C@]3(C2)C[C@H](c2n[nH]c(=O)c4ccccc42)C3)cnn1-c1ccccc1 (stereo partly drawn) | 0.2 |  |
| COc1cccc(C(CO)NC(=O)c2cccc(-c3ccc4[nH]ncc4c3)c2)c1 (stereo not drawn) |  | bioavailability [2]: 45%; half-life [3]: 2.9 h |
| COc1cccc(Cn2cnn(-c3ccc(-c4cn[nH]c4)cc3)c2=O)c1 | < 5 |  |
| c1cc(Oc2ccc3c(c2)CNCC3)c2c(-c3ccncc3)c[nH]c2c1 |  | Ki [4]: < 3 nM; Ki [5]: < 3 nM |
| COc1cccc(CN2CCN(c3ccc4c(c3)CCc3n[nH]cc3-4)C2=O)c1 | < 10 |  |
| Cc1c[nH]c2nccc(Oc3ccc(Nc4cc(Cl)nc(N)n4)cc3F)c12 |  | bioavailability [6]: 48%; half-life [7]: 1.2 h |
| COc1cc(-c2cc(C)cc(C)n2)sc1C(=O)NCC(O)CO (stereo not drawn) | 14 |  |

Second part, led by results:

| IC50 [1] [nM] | Compound | other results |
| --- | --- | --- |
| < 3 | COc1cccc(CN2C(=O)N(c3ccc(-c4cn[nH]c4)c(OC)c3)CC23CC3)c1 |  |
| 2 | NC(=O)c1ccccc1O[C@H]1C[C@]2(C1)C[C@H](N1C(=O)NC(c3ccccc3Cl)C1=O)C2 (stereo partly drawn) |  |
| 1.45 | NC[C@@H](C(=O)Nc1ccc2cnsc2c1)c1ccc(CO)cc1 |  |
